Assay results as given in US10344037B2, “Use of the FL-one hundred eighteen core chemical structure platform to generate FL-one hundred eighteen derivatives for treatment of human disease” (priority 2014, dated 2019).

Legend:
[1] = test system: SW620 and HCT-8 colon cancer cells; assay: MTT assay with ABC transporter inhibitors; format: cell-based, human; conditions: sildenafil 50 μM, 3 days
Method: Subconfluent SW620, HCT-8, and HCT-116 cells were lysed and analyzed for the expression of MDR1 and ABCG2 using western blots (WB). Actin is the internal control. […] Cell growth/viability was then analyzed by MTT assays. Each time point in the individual curve is the mean±SD from 3 to 5 independent assays. […] Drugs were then washed out and cells were allowed to grow in new medium without drugs for 2 weeks. Cell colonies were stained with crystal violet solution; images were digitally taken. Triplicate results are shown.

[2] = test system: human proteins (MARK3, DDI1, TPD52L2, CACNB1, PGPCR1, USP2, MC2R, FGF18, TP53I3, CNBP, WDR22, PVGCSE-M1, UBE2T, ULP7, RBMS2, BMX, CCNB1IP1); assay: Protein microarray (ProtoArray) with FL118 as a probe; format: binding; conditions: over 9,000 human proteins
Source text: These targets include, but not limited to, MAP/microtubule affinity-regulating kinase 3 (MARK3), DNA-damage inducible 1 (DDI1), tumor protein D52-like 2 (TPD52L2), calcium channel, voltage-dependent, beta 1 subunit (CACNB1), Probable G-protein coupled receptor 1 (PGPCR1), ubiquitin specific peptidase 2 (USP2), melanocortin 2 receptor (MC2R), Fibroblast growth factor 18 (FGF18), tumor protein p53 inducible protein 3 (TP53I3), CCHC-type zinc finger, nucleic acid binding protein (CNBP), WD repeat domain 22 (WDR22), Potassium voltage-gated channel subfamily E member 1 (PVGCSE-M1), ubiquitin-conjugating enzyme E2T (putative) (UBE2T), Ubiquitin-like protein 7 (ULP7), RNA binding motif, single stranded interacting protein 2 (RBMS2), Cytoplasmic tyrosine-protein kinase (BMX), and cyclin B1 interacting protein 1 (CCNB1IP1).

[3] = test system: HCT-8 colon cancer cells; assay: Cell growth inhibition, 72 hours; format: cell-based, human; conditions: HCT-8 cells
Method: Cell growth is then measured and the data are plotted as percentage of growth inhibition (no drug treatment was set at 0%). […] C. […] Representative cancer cell images were taken with a digital camera under phase-contrast microscope.

[4] = Lactone ring stability in formulated solution by mass spectrometry; format: physicochemical; conditions: formulated solution on shelf for 30 days at room temperature
Method: Mass spectrometry (MS) parameters are used as follows. Bruker Esquire, ion trap; Infusion Flow Rate, 5 μl/min; Ion Polarity, Positive; Ion Source Type, ESI; Dry Temp, 300 deg C.; Nebulizer, 8.00 psi; Dry Gas, 7.00 Umin; HV Capillary, 4000 V; HV End Plate, −500 V; Scan Begin, 100.00 m/z; Average, 30; Max Acc Time, 400 us; and ICC Target, 50000. MS scan is in both negative ion mode and positive ion mode.

[5] = test system: cancer cells; assay: Cell growth and viability, MTT; format: cell-based, human; conditions: 72 hours
Method: Actin is an internal control for equal protein loading. […] Subconfluent cancer cells as shown are treated with a series of concentrations of crolibulin as shown (0-100 μM) for 72 hours. Cell growth and viability are determined via MTT assay. Each curve is the mean±SD from 4 independent assays.
Crolibulin is an anticancer drug that targets endothelial cells of the cancer vasculature system. Therefore, crolibulin is considered as a vascular disrupt agent (VDA).

[6] = test system: HCT116-NS6 cells; assay: cells; format: cell-based, human
Method: (§2) Cancer cell viability and growth are determined by MTT assay. […] MTT is used as a colorimetric substrate for measuring cell viability and growth. When cell growth is inhibited, there is an alteration of cellular redox activity, and thus rendering cells unable to reduce the MTT dye. Cells are seeded in 96 well plates overnight and then treated with or without a compound/drug in the presence or absence of an protein molecule inhibitor (e.g. ABCG2 inhibitor ko143) for 48-72 hours, MTT is added to a final concentration 0.5 mg/ml. Cells are continuously incubated in a 5% CO2 incubator at 37° C. for 4 h with MTT and then lysed with a cell lysis buffer (20% SDS, 50% N,N-dimethylformamide, pH 4.7), 100 μl per well, for 4 h in the incubator. Subsequently, cell absorbance in each well is measured at 570 nm with an Ultra Microplate Reader (Bio-Tek Instruments). Results are reported as the mean±SD from 3-5 independent assays at each point. […] After 72 hours, media is removed and cells are harvested using 0.5 ml of 0.25% Trypsin-EDTA. Cells are counted and viability is analyzed on a Vi-CELL XR Cell Viability Analyzer (Beckman Coulter).

[7] = test system: DU145 prostate cancer cells; assay: Cell growth inhibition, cell counting after 72 h; format: cell-based, human
Source text: Each dot is the mean±SD derived from 3 independent assays.
Irinotecan and topotecan are the only two analogs derived from direct modification of camptothecin (CPT) that are approved by the FDA for cancer treatment in clinical practice. […] In this regard, we obtain one DU145 parental prostate cancer cell line and two DU145-derived sub-lines with Top1 mutations (DU145-RC0.1, DU145-RC1).

[8] = test system: HCT116-G7 cells; assay: cells; format: cell-based, human
Method: as §2

[9] = test system: human umbilical vein endothelial cells (HUVECS); assay: Cell growth and viability, MTT; format: cell-based; conditions: 72 hours
[10] = Cardiac measurements by ultrasound; format: in vivo, SCID mice; conditions: IV 0.75 mg/kg (½MTD), q2d×4
Method: Cardiac imaging is performed using a 55 MHz ultrasound transducer system. Calculations are made based on the Simpson's method. Three short axis images and one long axis image of the left ventricle are acquired and used to determine cardiac output, ejection fraction, and stroke volume. […] Measurements are made with a 55 MHz ultrasound probe. Step (a): cardiac output is a measurement of the total volume of blood pumped by the left ventricle per minute. Step (b) ejection fraction measures the percentage of blood that leaves the left ventricle every time it contracts. Step (c) stroke volume measures the volume of blood pumped from the left ventricle with each contraction.
On the other hand, we have analyzed a comprehensive panel of chemical parameters to determine the potential chemical toxicity including renal and liver toxicity using blood samples from vehicle-treated SCID mice and FL118-treated mice. The analyzed parameters include glucose (GLU), blood urea nitrogen (BUN), creatinine (CREA), inorganic phosphate (PHOS), calcium (CA), total protein (TP), albumin (ALB), alanine aminotransferase (ALT), alkaline phosphatase (ALKP), Gamma-glutamyl transferase (GGT), total bilirubin (TBIL), cholesterol (CHOL), and amylase (AMYL), lipase (LIPA).

[11] = test system: HCT116 colon cancer cells; assay: cells; format: cell-based, human
Method: as §2

[12] = test system: HIF-1α; assay: Western blot for HIF-1α expression under hypoxia in FaDu cells; format: cell-based, human; conditions: 36 h
[13] = test system: FaDu head-&-neck and SW620 CRC tumor xenografts; assay: Xenografts with acquired irinotecan or topotecan resistance; format: in vivo, SCID mice; conditions: FL118 1.5 or 1 mg/kg IP q2d×5
Method: (§1) Individual tumor curves derived from individual mice are shown. A. Mice with FaDu head-&-neck tumor xenografts were first treated with irinotecan at its maximum tolerated dose (MTD, 100 mg/kg, IP) weekly for 4-5 times (black arrow). […] B. Mice with FaDu tumor xenografts were first treated with topotecan at its MTD (4 mg/kg, IP) via daily×5 schedules for 4 cycles (each black arrow is one cycle). […] C. Mice with SW620 CRC xenografts were first treated with irinotecan at its MTD (IP, weekly×4, black arrow). […] D. Mice with SW620 xenograft tumors were first treated with topotecan at its MTD.

[14] = in vivo; conditions: weekly×4
Method: as §1

[15] = IC50 of topotecan divided by IC50 of the drug

Compound: CC[C@@]1(O)C(=O)OCc2c1cc1n(c2=O)Cc2cc3cc4c(cc3nc2-1)OCO4 [FL118]
- sensitization by multi-efflux pump inhibitor sildenafil [1]: sildenafil does not sensitize FL118
- biochemical targets identified [2]: Revealed Novel FL118 Biochemical Targets
- more sensitive to colon cancer cells than topotecan [3]: at least 25 time
- lactone versus carboxylate form in solution [4]: fully in lactone form
- sensitivity of cancer cells [5]: sensitive to FL118 treatment
- IC50 [6]: 0.138 nM
- RP [6, 15]: 40.87
- IC50 ([7]; DU-145): 4.56 nM
- more effective than CPT, SN-38 and topotecan to inhibit cancer cell growth ([7]; parental Du145 cell line): 10-40 fold
- IC50 [8]: 1.19 nM
- RP [8, 15]: 16.22
- sensitivity of HUVEC cells [9]: insensitive to FL118 treatment
- cardiac output, ejection fraction and stroke volume [10]: no difference between vehicle control and FL118-treated SCID mice
- IC50 [11]: 0.0477 nM
- RP [11, 15]: 15.67
- hypoxia-induced HIF-1α expression [12]: abrogated by FL118 treatment
- effect on tumors with acquired irinotecan and topotecan resistance [13]: effectively regressed
- MTD ([14]; IV injection): 5 mg/kg
- body weight loss ([14]; oral administration): Minimal Body Weight Loss
- MTD ([14]; oral): 10 mg/kg
